According to PMC9698768, “Laminaria japonica Peptides Suppress Liver Cancer by Inducing Apoptosis: Possible Signaling Pathways and Mechanism” (Marine Drugs, 2022):
Residues, ends and D or L forms follow the SMILES beside them.

Columns and labels:
in vitro = format: cell-based; settings: human
Excerpt: Liver cancer cells (HuH7, HepG2, and H22) and human liver cells (HL-7702) were obtained from the Cell Bank of the Chinese Academy of Sciences (Shanghai, China). Fresh L. japonica was acquired from the South China Agricultural University (Guangzhou, China) and identified by Professor C. Wang (South China Agricultural University, Guangzhou, China). The annexin V-FITC/PI staining assay kit and propidium iodide (PI) reagents were supplied by Beyotime (Shanghai, China). Dulbecco’s modified Eagle medium (DMEM), fetal bovine serum (FBS), and penicillin-streptomycin (PS) were purchased from Gibco BRL (Life Technologies, Grand Island, NY, USA). The antibodies used in the current study were acquired from Cell Signaling Technology, Inc. (Manchester, NH, USA). Cell lines were grown in specific medium supplemented with 10% FBS. Cells were grown in a humidified atmosphere with 5% CO2 in incubators maintained at 37 °C. Balb/c mice (6–8 weeks old, 20 ± 2 g) were acquired from the Guangdong Experimental Animal Center. Ab MTT assay was used to detect the cytotoxicity activity of LJPs in vitro [42]. […] The absorbance was measured at 570 nm using a microplate reader (Bio-Rad; Hercules, CA, USA) after 100 μL of DMSO was added. The IC^50 values were determined by the non-linear multipurpose curve-fitting program.

HuH7 = format: cell-based, human; settings: 48 h
Excerpt: (§1) Liver cancer cells (HuH7, HepG2, and H22) and human liver cells (HL-7702) were obtained from the Cell Bank of the Chinese Academy of Sciences (Shanghai, China). Fresh L. japonica was acquired from the South China Agricultural University (Guangzhou, China) and identified by Professor C. Wang (South China Agricultural University, Guangzhou, China). The annexin V-FITC/PI staining assay kit and propidium iodide (PI) reagents were supplied by Beyotime (Shanghai, China). Dulbecco’s modified Eagle medium (DMEM), fetal bovine serum (FBS), and penicillin-streptomycin (PS) were purchased from Gibco BRL (Life Technologies, Grand Island, NY, USA). The antibodies used in the current study were acquired from Cell Signaling Technology, Inc. (Manchester, NH, USA). Cell lines were grown in specific medium supplemented with 10% FBS. Cells were grown in a humidified atmosphere with 5% CO2 in incubators maintained at 37 °C. Balb/c mice (6–8 weeks old, 20 ± 2 g) were acquired from the Guangdong Experimental Animal Center. Ab MTT assay was used to detect the cytotoxicity activity of LJPs in vitro [42]. Briefly, 5 × 10^3 cells/well were seeded in 96-well plates, and varying concentrations of LJP were added. After 48 h, the MTT solution (5 mg/mL) was added for an additional 4 h. The absorbance was measured at 570 nm using a microplate reader (Bio-Rad; Hercules, CA, USA) after 100 μL of DMSO was added. The IC^50 values were determined by the non-linear multipurpose curve-fitting program.

HepG2 = format: cell-based, human; settings: 48 h
Excerpt: as §1

H22 = format: cell-based; settings: 48 h
Excerpt: as §1

Structure (SMILES) | IC50 at 48 h (in vitro) [µM] | IC50 (HuH7) [µM] | IC50 (HepG2) [µM] | IC50 (H22) [µM]
CC(C)C[C@H](NC(=O)[C@H](Cc1c[nH]cn1)NC(=O)[C@H](Cc1ccccc1)NC(=O)CNC(=O)[C@@H](N)CCC(=O)O)C(=O)O [LJP-1] (H-EGFHL-OH) | 7760 ± 710 | 480 ± 50 | 450 ± 50 | 360 ± 30
CC(C)C[C@H](N)C(=O)N[C@@H](Cc1c[nH]c2ccccc12)C(=O)N[C@@H](CCC(=O)O)C(=O)N[C@@H](Cc1c[nH]cn1)C(=O)N[C@@H](CO)C(=O)N[C@@H](Cc1c[nH]cn1)C(=O)O [LJP-2] (H-LWEHSH-OH) |  | 2250 ± 220 | 1710 ± 130 | 620 ± 50
N=C(N)NCCC[C@H](NC(=O)[C@H](Cc1c[nH]cn1)NC(=O)[C@H](CO)NC(=O)[C@@H](N)Cc1ccccc1)C(=O)NCC(=O)N[C@@H](Cc1c[nH]cn1)C(=O)O [LJP-3] (H-FSHRGH-OH) |  | 1420 ± 120 | > 4000 | 1700 ± 150
N[C@@H](CCC(=O)O)C(=O)NCC(=O)N[C@@H](Cc1c[nH]cn1)C(=O)NCC(=O)N[C@@H](Cc1ccccc1)C(=O)O [LJP-4] (H-EGHGF-OH) |  | 620 ± 70 | 650 ± 70 | 680 ± 70
C[C@@H](O)[C@H](NC(=O)[C@H](CO)NC(=O)[C@@H](N)Cc1ccccc1)C(=O)N[C@@H](Cc1c[nH]cn1)C(=O)NCC(=O)NCC(=O)O [LJP-5] (H-FSTHGG-OH) |  | 2440 ± 220 | 2780 ± 260 | 1490 ± 130
NCCCC[C@H](NC(=O)[C@@H](N)Cc1ccccc1)C(=O)N[C@@H](CCC(=O)O)C(=O)N[C@@H](Cc1c[nH]cn1)C(=O)NCC(=O)N[C@@H](Cc1ccc(O)cc1)C(=O)O [LJP-6] (H-FKEHGY-OH) |  | > 4000 | 3060 ± 310 | > 4000
C[C@H](NC(=O)[C@H](Cc1c[nH]c2ccccc12)NC(=O)[C@H](CO)NC(=O)[C@H](Cc1ccc(O)cc1)NC(=O)CNC(=O)[C@H](C)NC(=O)[C@@H](N)Cc1c[nH]cn1)C(=O)O [LJP-7] (H-HAGYSWA-OH) |  | 2530 ± 240 | 1660 ± 110 | 1440 ± 120
CC(C)[C@H](NC(=O)[C@H](Cc1ccc(O)cc1)NC(=O)[C@@H](NC(=O)[C@H](Cc1c[nH]cn1)NC(=O)[C@H](CO)NC(=O)[C@@H](N)Cc1ccccc1)[C@@H](C)O)C(=O)O [LJP-8] (H-FSHTYV-OH) |  | 440 ± 40 | 630 ± 50 | 760 ± 80
N[C@@H](Cc1ccccc1)C(=O)N[C@@H](CCC(=O)O)C(=O)N[C@@H](Cc1c[nH]cn1)C(=O)N[C@@H](CO)C(=O)NCC(=O)O [LJP-9] (H-FEHSG-OH) |  | 530 ± 50 | 690 ± 80 | 510 ± 70
C[C@H](NC(=O)[C@@H](N)Cc1c[nH]cn1)C(=O)N[C@@H](CO)C(=O)N[C@@H](Cc1c[nH]c2ccccc12)C(=O)N[C@@H](CCC(=O)O)C(=O)N[C@@H](Cc1c[nH]cn1)C(=O)O [LJP-10] (H-HASWEH-OH) |  | 3520 ± 350 | 2690 ± 220 | 3530 ± 340
N[C@@H](Cc1ccc(O)cc1)C(=O)N[C@@H](CCC(=O)O)C(=O)N[C@@H](Cc1c[nH]cn1)C(=O)N[C@@H](CO)C(=O)N[C@@H](Cc1c[nH]cn1)C(=O)NCC(=O)O [LJP-11] (H-YEHSHG-OH) |  | 490 ± 50 | 610 ± 70 | 700 ± 70
C[C@@H](O)[C@H](N)C(=O)N[C@@H](Cc1ccccc1)C(=O)N[C@@H](CCCCN)C(=O)N[C@@H](Cc1c[nH]cn1)C(=O)NCC(=O)O [LJP-12] (H-TFKHG-OH) |  | 410 ± 40 | 600 ± 80 | 720 ± 50
